Measured values reported in ChEMBL document CHEMBL3045481, “Insecticide-induced resurgence of the whitebacked planthopper Sogatella furcifera (Horvath) (Hemiptera: Delphacidae) on rice varieties with different levels of resistance” (Crop Prot, 2011).
Active and inactive are the calls of the source. The rule behind the calls is not given here.

Legend:
[1] = system: Sogatella furcifera; assay: Insecticidal activity against Sogatella furcifera on insect-sensitive rice plant ARC6248 assessed as nymphal survival at 0.0018% concentration (reference value: 34.17%); type: functional
[2] = system: Sogatella furcifera; assay: Insecticidal activity against Sogatella furcifera on insect-sensitive rice plant ARC6248 assessed as growth index at 0.0018% concentration (reference value: 2.38%); type: functional
[3] = system: Sogatella furcifera; assay: Insecticidal activity against Sogatella furcifera on insect-resistanct rice plant PR116 assessed as growth index at 0.0018% concentration (reference value: 6.02%); type: functional
[4] = system: Sogatella furcifera; assay: Insecticidal activity against Sogatella furcifera on insect-resistanct rice plant PR116 assessed as nymphal survival at 0.0018% concentration (reference value: 70.28%); type: functional
[5] = system: Sogatella furcifera; assay: Insecticidal activity against adult Sogatella furcifera on insect-sensitive rice plant ARC6248 assessed as high mortality at 0.0035% concentration; type: functional, organism-based
[6] = system: Sogatella furcifera; assay: Insecticidal activity against Sogatella furcifera on insect-sensitive rice plant ARC6248 assessed as nymphal duration at 0.0018% concentration (reference value: 14.48 days); type: functional
[7] = system: Sogatella furcifera; assay: Insecticidal activity against Sogatella furcifera on insect-sensitive rice plant ARC6248 assessed as reproduction at 0.0018% concentration; type: functional, organism-based
[8] = system: Sogatella furcifera; assay: Insecticidal activity against adult Sogatella furcifera on insect-resistanct rice plant PR116 assessed as high mortality at 0.0035% concentration; type: functional, organism-based
[9] = system: Sogatella furcifera; assay: Insecticidal activity against Sogatella furcifera on insect-resistanct rice plant PR116 assessed as resurgence ratio at 0.100% concentration; type: functional
[10] = system: Sogatella furcifera; assay: Insecticidal activity against Sogatella furcifera on insect-resistanct rice plant PR116 assessed as reproduction at 0.0018% concentration; type: functional, organism-based
[11] = system: Sogatella furcifera; assay: Insecticidal activity against Sogatella furcifera on insect-sensitive rice plant ARC6248 assessed as resurgence ratio at 0.100% concentration; type: functional
[12] = system: Sogatella furcifera; assay: Insecticidal activity against Sogatella furcifera on insect-resistanct rice plant PR116 assessed as nymphal duration at 0.0018% concentration (reference value: 11.75 days); type: functional

O=[N+]([O-])/N=C1\NCCN1Cc1ccc(Cl)nc1 [IMIDACLOPRID]
Survival [1]: 35.56%
growth inhibition (GI) [2]: 2.48%
growth inhibition (GI) [3]: 5.91%
Survival [4]: 69.72%
inhibition [5]: Active
Time [6]: 14.46 days
inhibition [7]: inactive
inhibition [8]: Active
Ratio [9]: <1
inhibition [10]: inactive
Ratio [11]: <1
Time [12]: 11.85 days
